Structure (SMILES)	melting point
C=CCSCCON=C(C(=O)O)c1csc(NC=O)n1	70 to 78 °C
Cc1c(C(=O)N[C@H](C)[C@](O)(Cn2cncn2)c2ccc(F)cc2F)cnn1-c1ccccc1Cl	232 to 233 °C
Nc1ncccc1OCc1cccc(Cl)c1F	98 to 100 °C
N#CC(CC1CCCCC1)c1n[nH]c2cc(O)ccc12 (stereo not drawn)	175 °C
O=C(O)c1c(O)c(-c2ccc(-c3ccccc3)cc2)nc2c(Cl)cc(Cl)cc12	215 to 217 °C
Fc1ccc(-c2ncn(CCCCl)c2-c2ccncc2)cc1	139 to 140 °C
O=C1CCN(C(=O)Cl)c2ccc(Cl)cc21	114 to 116 °C
CCOC(=O)C(C)(C)Oc1ccc(-c2ccc(CCNC(=O)c3ccc(OC)c(OC)c3)cc2)cc1	118 °C
CCc1noc(-c2cn(-c3ccc([N+](=O)[O-])cn3)cn2)n1	228 to 229 °C
Cc1cncc2cccc(S(=O)(=O)Cl)c12	113 to 118 °C
CCNC(=O)Oc1cccc(NC(=O)C=C(C)OC)c1	183 °C
CNCC1Cc2cc(OC)cc(-c3cc(OC)ccc3OC)c2O1 (stereo not drawn)	144 to 145 °C
N#Cc1ncn2c1[C@@H]1CCN1C(=O)c1ccccc1-2	232 to 234 °C
O=C(O)Cc1cc(Cl)cc2c(-c3ccccc3)onc12	188 to 190 °C
CCCCCCCCNC1=CC(=O)c2c(OC)ccc(OC)c2C1=O	81 to 82 °C
CCCCCCCCCCc1sc(NC(=O)Nc2c(C(C)C)cccc2C(C)C)nc1C	101 to 108 °C
CCOC(=O)CCc1cn(Cc2cccnc2OCc2csc(-c3ccccc3)n2)nc1-c1ccccc1	88 to 89 °C
COc1cc(Nc2c(C#N)cnc3cc(-c4ccc(C5OCCCO5)o4)ccc23)c(Cl)cc1Cl	224 to 229 °C
CCCCCC(O)C=CC1C(O)CC(O)C1CCCCCCC(=O)O (stereo not drawn)	98 to 100 °C
Cc1cccc2c1NC(=O)c1cscc1O2	194 to 195 °C
CCCCOC(=O)c1ccc(N2CCN(C)CC2)cc1	118 to 120 °C
CCCCCCCCCCCC(=O)c1ccc(-c2ccc(O)c(F)c2)cc1	123 to 124 °C
O=C(Nc1cccc(C(=NO)c2ccccc2)c1)c1ccn2c1CSC2c1cccnc1 (single isomer, unassigned; (+))	130 °C
N#CC1=C(CN2C(=O)c3ccccc3C2=O)Nc2n[nH]cc2C1c1ccccc1Cl (stereo not drawn)	> 250 °C
O=C(O)CS(=O)(=O)CC(F)(F)F	145 °C

Structure (SMILES)	melting point
CCCn1c(=O)c2c(nc(/C=C/c3ccccc3)n2C)n(CCC)c1=O	163 °C
COc1cc(C)nc(C)c1C(=O)OC(C)c1nc2c(c(=O)n(C)c(=O)n2C)n1C (stereo not drawn)	135 to 138 °C
Cc1cccc(-n2cc(-c3ccc4c(c3)N(C(=O)CN3CCN(C)CC3)CCO4)nn2)n1	132 °C
COc1c(O)c(CN2CCN(C)CC2)c(O)c2c(=O)cc(-c3ccccc3)oc12	179 °C
Cn1nc(-c2c(F)cccc2Cl)nc1-c1sc(Br)c(Cl)c1Cl	178 to 180 °C
CC(=O)OC(C)Cc1ccc(-c2ccc(C(C)=O)cc2)cc1 (stereo not drawn)	60 to 61 °C
O=C(OCc1cc(-c2ccccc2)c(=O)n2c1-c1sccc1CN2)N1CCOCC1	207 to 210 °C
CC(COc1cccc(=O)n1O)CC(C)(C)C (stereo not drawn)	134 °C
CCCCCCCCCCc1ccc(C(=O)c2cc(Br)c(C(=O)c3ccc(CCCCCCCCCC)cc3)cc2Br)cc1	128 to 129 °C
CC1(C)Cc2sccc2C(NC(N)=O)C1 (stereo not drawn)	174 to 178 °C
CNC(=O)NCCn1c(-c2ccc(CN3C(C)COCC3C)cc2)csc1=Nc1ccc(F)c(C)c1 (stereo not drawn)	116 to 119 °C
O=c1nc(NO)ccn1C1OC(CO)C(O)C1O (stereo not drawn)	173 to 176 °C
CCC(O)(c1ccc(Cl)cc1)c1ccc(OCc2cccc(C)n2)cc1 (stereo not drawn)	100 to 101 °C
CCCCOC(=O)C(OC(=O)C(C)C)OC(=O)N1CCN(c2cc3c(cc2F)c(=O)c(C(=O)O)cn3CC)CC1 (stereo not drawn)	152 to 160 °C
CCCCCc1noc(-c2ccc(OCCC3CCN(c4ccc(C)nn4)CC3)cc2)n1	111 °C
CCn1ncc2nc(C(=O)OCC#N)c(-c3ccccc3)nc21	102 to 103 °C
CNC(=C[N+](=O)[O-])NCCSCc1cc(CN(C)C)ccn1	113 to 115 °C
CC(=O)NCC=C1CCc2ccc3nc(CCCCc4ccccc4)oc3c21	113 to 115 °C
CSc1nc2cc(Cl)c(S(N)(=O)=O)cc2[nH]1	253 to 254 °C
C=CC1CCC(C2CCC3c4ccc(OCC)c(F)c4OC3C2)CC1 (stereo not drawn)	132 °C
CCc1nc2c(cnn2CC)c(NC2CCOCC2)c1CNC(=O)c1cccc(C(=O)NCc2ccc(Cl)c(-c3cccc(CN4CCNC(C)C4)c3)c2)c1 (stereo not drawn)	117 to 120 °C
CCc1ccc2oc(Cc3cccc(OC)c3)c(CCNC(C)=O)c2c1	102 °C
O=C(Nc1nc(C(F)(F)F)co1)C1c2ccccc2Oc2cc(F)ccc21 (racemic)	221 °C
Nc1ccccc1CSc1ncc(C(F)(F)F)cc1Cl	98 to 102 °C
CN1CCc2cc(-c3ccc4c(c3)CCN(CCN3CCCC3)C4=O)ccc2C1=O	225 to 226 °C

Structure (SMILES)	melting point
CC(c1ccc(COCc2ccccc2)o1)N(O)C(N)=O (stereo not drawn)	121 °C
COC(=O)c1ccc(-c2ccc3cc(C(=O)OCc4ccccc4)c(C45CC6CC(CC(C6)C4)C5)cc3c2)cc1	143 to 144 °C
CN(C)C=C(C=O)c1ccc(Cl)cc1Cl	112 to 114 °C
CNC(=O)C1=CC2(CCSCC2)Oc2ccc([N+](=O)[O-])cc21	208 to 209 °C
COc1ccccc1-c1ccc(C[C@H](NC(=O)C(C)c2c(Cl)cccc2Cl)C(=O)O)cc1 (stereo partly drawn)	109 to 110 °C
CCC(CC)c1cccc(C[C@H]2C(=O)O[C@H](c3ccccc3)[C@H](c3ccccc3)N2C(=O)OC(C)(C)C)c1	143 to 144 °C
Cc1cc(C(=S)CBr)ccc1O	118 to 120 °C
Cc1nc(Cn2cnc3c2c(=O)n(C)c(=O)n3C)no1	135 °C
COc1ccc(Cl)cc1C(=O)NCc1ccc(-c2ccc(OC(C)(C)C(=O)O)cc2)cc1	104 °C
CCCc1nc(C(C)(C)O)c(C(=O)OC(C)OC(=O)OC(C)C)n1Cc1ccc(-c2ccccc2C(=O)O)cc1 (stereo not drawn)	94 to 96 °C
CC1(C)CNc2cc(Br)ccc21	100 to 102 °C
Cc1ccccc1-c1nc2n(c1Br)-c1cccnc1Nc1ccccc1-2	220 to 222 °C
Cc1nn(-c2ccccn2)c2nc3ccccc3c(N)c12	210 to 213 °C
Cc1oc(-c2ccccc2)nc1COc1ccc(CON=C(CCCCCCC(=O)O)c2ccccc2)cc1	88 to 89 °C
COC12CC(C)(C)C(O1)C(O)C=C2C (stereo not drawn)	52 to 54 °C
CC(=O)c1sc(-c2ccncc2)c(-c2ccncc2)c1C	140 to 142 °C
Nc1csc2c([N+](=O)[O-])cccc12	188 to 191 °C
COc1ccc(OC)c(C(O)CNC(=O)CN)c1 (stereo not drawn)	106 to 107 °C
NC(=NO)c1ncn2c1[C@@H]1CCCN1C(=O)c1c(Cl)cccc1-2	249 to 250 °C
CC(=O)OCC1OC(c2ccc(F)c(Cc3ccc(Br)s3)c2)C(OC(C)=O)C(OC(C)=O)C1OC(C)=O (stereo not drawn)	127 to 129 °C
COC(=O)C=CC(=O)N[C@@H](CO)c1ccccc1	75 to 77 °C
Nc1nc(-c2ccncc2)nc(N)c1N	230 to 232 °C
O=C1NC(=O)c2c1c(-c1ccccc1)cc1c2c2cc(O)ccc2n1CCCN1CCNCC1	178 to 183 °C
CC1(C)C(=O)C(C)(C)c2cc3[nH]c(S(=O)Cc4ccccn4)nc3cc21 (stereo not drawn)	201 to 203 °C
CN(C)C(=O)c1ccc2ccccc2c1/C=C/c1ccccc1	114 to 116 °C

Structure (SMILES)	melting point
Cc1cn(-c2cccc(C3=Nc4ccc(-c5ccccc5F)cc4NC(=O)C3)c2)c(C)n1	92 °C
CCOC(=O)C(O)(Cn1cncn1)c1ccc(F)cc1 (stereo not drawn)	142 to 144 °C
CC(C)=CCN1C(=O)c2ccccc2C1=O	95 to 97 °C
CN(C)C(=O)c1cccnc1C(=O)c1cccc(C(F)(F)F)c1	100 to 103 °C
CCCCCCCCCCCCCCCCCNC(=O)Oc1cccc(N)c1	69 to 75 °C
O=C(O)/C=C/c1oc(-c2ccccc2)nc1-c1ccc(Cl)cc1	255 to 257 °C
[N-]=[N+]=C(c1ccccc1)c1ccc(COCCNC(=O)Nc2ccccc2)cc1	111 to 115 °C
C[C@@H](S[C@H]1CO[C@H](c2ccc(C(=O)Nc3nc4ccccc4s3)cc2)OC1)[C@](O)(Cn1cncn1)c1ccc(F)cc1F	107 °C
COc1c(C#N)c2cc(Cl)c(Cl)cc2n1C1OC(CO)C(O)C1O (stereo not drawn)	245 to 246 °C
COc1ccc(C(=NN)Nc2ccc([N+](=O)[O-])cc2)cc1	104 °C
CN1CCN(c2nc3sc4c(NCc5ccccn5)ncnc4c3c3c2COC(C)(C)C3)CC1	218 to 219 °C
CNC(=O)c1ccnc(NC(=O)N2CCC3(CCc4ccc(F)cc4O3)CC2)c1	177 to 179 °C
CCOC(=O)C=Nc1c(Cl)cccc1C(=O)O	175 °C
O=C(C=Cc1ccc(F)cc1)c1c(F)c(F)c(F)c(F)c1F	80 to 84 °C
O=C(OCCN1CCN(c2ccc(Cl)cc2)CC1)c1sccc1Nc1ccnc2c(C(F)(F)F)cccc12	155 °C
Cc1c(N2CC(O)C2)c(F)cc2c(=O)n(N)c(=O)n(C3CC3)c12	212 to 214 °C
CCC(C)(C)c1ccc(OCC2CN=C(N)O2)cc1 (stereo not drawn)	104 °C
Cc1nc(C(=O)NS(=O)(=O)c2c(C)csc2C(=O)OC(C)C)no1	142 °C
COc1ccc(C(=O)CCCCCN2CCC(CNC(=O)c3cc(Cl)c(N)cc3OC)CC2)cc1F	112 to 113 °C
COC(=O)c1cc(C[C@@H]2COc3ccc(OCc4nc5cc(F)ccc5s4)cc3[C@@H]2O)ccc1OC (relative stereo)	160 to 162 °C
CN(C(=O)c1ccc2c(c1)nc(NC(=O)c1cccs1)n2CCCOC(=O)c1cccs1)C1CCCCC1	92 to 94 °C
Cn1c(=O)c2c(nc(Cl)n2Cc2ccccc2Br)n(C)c1=O	165 to 167 °C
OCCC1CC(n2nnc3c(NC4CC4c4ccccc4)nc(Sc4ccc(C(F)(F)F)cc4)nc32)C(O)C1O (stereo not drawn)	100 to 102 °C

Reference: a melting point compilation (Tetko et al.; mined from patent text by program, amines drawn as free bases though some values may be those of a salt)
